Calls of active or inactive are those of the source.
Experiments:
[1] = target: Lysine-specific demethylase 4C (Homo sapiens, UniProt Q9H3R0); test: inhibition of JMJD2C H3K9me3 demethylation – biochemical, DELFIA europium, cherry-picked samples, dose response (AID 488835); assay type: functional
A-375 [2] = test: MITF: Counter assay: A375 proliferation Measured in Cell-Based System Using Plate Reader - 2084-03_Inhibitor_Dose_DryPowder_Activity. [Related pubchem assays (depositor defined):AID488944]; assay type: functional; conditions: Homo sapiens
A-375 [3] = test: proliferation inhibition in MITF-low A375 cells – cell-based, cherry-pick samples, set 2, counter-screen for MITF modulator project, dose response (AID 540335); assay type: functional; conditions: Homo sapiens
[4] = target: 5-hydroxytryptamine receptor 5A (Homo sapiens, UniProt P47898); test: Counterscreen for agonists of OPRM1-OPRD1 heterodimerization: luminescence-based cell-based high throughput dose response assay to identify agonists of 5-hydroxytryptamine (serotonin) 5A receptor (HTR5A). [Related pubchem assays (depositor defined):AID504326, AID504355, AID504692, AID504904, AID504905]; assay type: functional
[5] = target: Delta-type opioid receptor (Homo sapiens, UniProt P41143); test: Counterscreen for agonists of heterodimerization of the mu 1 (OPRM1) and delta 1 (OPRD1) opioid receptors: Luminescence-based cell-based high throughput dose response assay to identify agonists of OPRD1 homodimerization. [Related pubchem assays (depositor defined):AID504326, AID504355, AID504692, AID504904, AID504905]; assay type: functional
Mu-type opioid receptor = Mu-type opioid receptor (Homo sapiens, UniProt P35372); test: Counterscreen for agonists of heterodimerization of the mu 1 (OPRM1) and delta 1 (OPRD1) opioid receptors: Luminescence-based cell-based high throughput dose response assay to identify agonists of OPRM1 homodimerization.; assay type: functional;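 note: U2OS cells expressing OPRM1 and beta-arrestin as split beta-galactosidase partners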
[6] = reduction of Shn3 3'UTR-driven luciferase in osteoblasts – cell-based, Clone20 osteoblasts, firefly luciferase, cherry-picked, dose response (AID 624132); assay type: functional;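 note: firefly luciferase luminescence from reporter carrying the Shn3 3'UTR in osteoblasts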
[7] = non-specific 3'UTR reporter inhibition in Clone20-Shn3RL – cell-based, Renilla luciferase, cherry-picked, counter-screen for Shn3 inhibitor project, dose response (AID 624133); assay type: functional
[8] = loss of viability in HepG2 cells – cell-based, CellTiter-Glo, cherry-picked, cytotoxicity control for Shn3 inhibitor project, dose response (AID 624134); assay type: functional
[9] = target: T1, Microphthalmia-associated transcription factor (Homo sapiens, UniProt O75030); test: reducers of TRPM1 reporter luminescence, concentration series – cell-based, SK-MEL-5, cherry-picked, set 3, MITF inhibitor project, dose response (AID 493073); assay type: functional;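 note: SK-MEL-5 melanoma cells with luciferase driven by the MITF target TRPM1 promoter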
T1 sequence (O75030 whole entry): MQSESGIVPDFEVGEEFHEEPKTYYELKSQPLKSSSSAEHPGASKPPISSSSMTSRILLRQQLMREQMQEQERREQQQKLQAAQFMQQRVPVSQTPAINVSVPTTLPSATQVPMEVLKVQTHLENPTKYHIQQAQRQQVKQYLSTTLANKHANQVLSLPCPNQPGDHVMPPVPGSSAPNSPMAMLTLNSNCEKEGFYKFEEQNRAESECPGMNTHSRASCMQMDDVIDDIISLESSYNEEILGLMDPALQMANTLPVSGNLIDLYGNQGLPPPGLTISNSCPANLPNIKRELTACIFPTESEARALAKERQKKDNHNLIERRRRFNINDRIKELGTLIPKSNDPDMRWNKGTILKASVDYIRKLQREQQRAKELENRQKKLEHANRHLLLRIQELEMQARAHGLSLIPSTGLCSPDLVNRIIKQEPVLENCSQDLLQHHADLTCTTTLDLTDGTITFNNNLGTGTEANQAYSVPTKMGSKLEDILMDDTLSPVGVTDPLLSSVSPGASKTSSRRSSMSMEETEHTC

[10] = A Cell Based Secondary Assay To Explore Cytotoxicity of Compounds that Sensitize Mycobacterium Tuberculosis to Beta-Lactam Antibiotics.; assay type: functional
HeLa = test: viability loss in HeLa cells – cell-based, 24 h, cherry-picked samples, cytotoxicity control, dose response (AID 504726); assay type: functional; conditions: Homo sapiens;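 note: potency for cytotoxicity as loss of luminescence signal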
HEK293 [11] = test: cells; conditions: Homo sapiens
HEK293 [12] = test: cells; conditions: Homo sapiens; remark: listed apart in the source
Cytochrome P450 2D6 = Cytochrome P450 2D6 (Homo sapiens, UniProt P10635);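 note: CYP2D6 member of a cytochrome P450 panel assay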
ORF 73 = target: T2, ORF 73 (Human herpesvirus 8, UniProt O40947); test: KSHV LANA DNA-binding disruption – biochemical, fluorescence polarization, cherry-picked samples, dose response (AID 504725); parameters: species or system Human gammaherpesvirus 8;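 note: fluorescence polarization of a labeled DNA duplex reporting LANA DNA binding; potency is for inhibitors that block LANA binding to the DNA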
T2 sequence (O40947 whole entry): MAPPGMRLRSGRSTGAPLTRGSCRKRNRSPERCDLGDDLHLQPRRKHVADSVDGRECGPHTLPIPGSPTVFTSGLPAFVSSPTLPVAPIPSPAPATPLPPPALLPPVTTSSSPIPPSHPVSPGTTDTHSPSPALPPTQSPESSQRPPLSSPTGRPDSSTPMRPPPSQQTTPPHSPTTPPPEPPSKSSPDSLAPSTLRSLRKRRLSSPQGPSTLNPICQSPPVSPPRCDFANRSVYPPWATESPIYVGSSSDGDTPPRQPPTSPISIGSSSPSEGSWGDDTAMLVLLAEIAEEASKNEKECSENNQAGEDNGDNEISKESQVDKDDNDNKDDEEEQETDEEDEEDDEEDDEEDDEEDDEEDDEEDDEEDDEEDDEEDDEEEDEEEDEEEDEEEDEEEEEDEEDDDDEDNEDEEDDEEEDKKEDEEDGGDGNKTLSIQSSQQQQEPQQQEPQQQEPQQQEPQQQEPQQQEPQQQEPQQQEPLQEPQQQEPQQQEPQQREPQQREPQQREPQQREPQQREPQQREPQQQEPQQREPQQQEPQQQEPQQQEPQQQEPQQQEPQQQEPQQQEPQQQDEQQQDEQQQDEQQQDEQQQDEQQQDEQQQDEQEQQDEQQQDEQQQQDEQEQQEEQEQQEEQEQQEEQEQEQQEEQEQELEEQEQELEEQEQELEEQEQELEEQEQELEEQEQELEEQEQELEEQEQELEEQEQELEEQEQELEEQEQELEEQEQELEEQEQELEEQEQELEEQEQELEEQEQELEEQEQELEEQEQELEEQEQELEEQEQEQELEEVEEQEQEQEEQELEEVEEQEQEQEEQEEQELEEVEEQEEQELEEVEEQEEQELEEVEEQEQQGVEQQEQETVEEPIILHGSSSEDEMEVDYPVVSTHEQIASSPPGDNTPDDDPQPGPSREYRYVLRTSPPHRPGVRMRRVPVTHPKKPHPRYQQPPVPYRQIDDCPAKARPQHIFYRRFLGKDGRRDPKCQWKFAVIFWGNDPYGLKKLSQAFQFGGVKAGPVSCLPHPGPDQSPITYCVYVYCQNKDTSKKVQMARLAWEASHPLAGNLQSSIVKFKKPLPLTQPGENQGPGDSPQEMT

Vero [13] = test: cells; assay type: functional, cell-based; conditions: Chlorocebus sabaeus
Vero [14] = test: cells; assay type: functional; conditions: Chlorocebus sabaeus
HEK293 [15] = test: cells; conditions: Homo sapiens; remark: listed apart in the source
[16] = target: T3, Nucleotide-binding oligomerization domain-containing protein 1 (Homo sapiens, UniProt Q9Y239); test: blockers of NOD1 pathway activity – revised, SAR follow-up (AID 2333); assay type: functional
T3 sequence (Q9Y239 whole entry): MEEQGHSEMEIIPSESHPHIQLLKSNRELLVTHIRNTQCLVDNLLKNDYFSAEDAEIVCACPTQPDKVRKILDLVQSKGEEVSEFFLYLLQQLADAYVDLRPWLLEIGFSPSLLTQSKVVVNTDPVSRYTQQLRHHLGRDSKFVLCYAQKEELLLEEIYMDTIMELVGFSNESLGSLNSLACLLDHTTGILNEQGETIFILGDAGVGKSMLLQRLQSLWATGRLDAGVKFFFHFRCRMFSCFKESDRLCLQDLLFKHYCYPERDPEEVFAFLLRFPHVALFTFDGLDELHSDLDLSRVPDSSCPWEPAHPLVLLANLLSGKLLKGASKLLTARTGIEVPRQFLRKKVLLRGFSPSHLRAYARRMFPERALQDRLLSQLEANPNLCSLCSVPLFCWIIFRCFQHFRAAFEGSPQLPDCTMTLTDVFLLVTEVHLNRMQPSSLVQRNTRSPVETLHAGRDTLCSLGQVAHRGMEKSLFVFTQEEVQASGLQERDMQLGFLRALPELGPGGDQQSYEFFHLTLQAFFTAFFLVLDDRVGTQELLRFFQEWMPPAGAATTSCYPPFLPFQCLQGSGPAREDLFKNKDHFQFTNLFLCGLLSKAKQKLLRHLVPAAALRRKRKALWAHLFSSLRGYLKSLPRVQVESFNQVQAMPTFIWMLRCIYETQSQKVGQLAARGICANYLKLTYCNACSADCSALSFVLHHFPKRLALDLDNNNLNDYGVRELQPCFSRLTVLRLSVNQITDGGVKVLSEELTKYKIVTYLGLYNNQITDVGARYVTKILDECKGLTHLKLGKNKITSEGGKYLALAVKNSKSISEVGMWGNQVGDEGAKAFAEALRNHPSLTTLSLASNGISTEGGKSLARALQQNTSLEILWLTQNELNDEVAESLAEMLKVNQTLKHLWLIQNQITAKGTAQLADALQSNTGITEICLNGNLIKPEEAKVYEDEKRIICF

Tumor necrosis factor = Tumor necrosis factor (Homo sapiens, UniProt P01375); test: analog potency on TNFa NF-kB signaling – cell-based, revised, SAR follow-up (AID 2337); assay type: functional
[17] = Luminescence Cell-Based Dose Response HTS to Identify Inhibitors of 5'UTR Stem-Loop Driven Prion Protein mRNA Translation in H4 Neuroglioblastoma Cells. [Related pubchem assays: 1827 (Project Summary), 1813 (Primary HTS)]; assay type: functional
[18] = luciferase reporter signal suppression in cells – H4 neuroglioma cells, luminescence, dose response (AID 1990); assay type: functional, cell-based
[19] = alpha-synuclein stem-loop luciferase translation blockers – H4 neuroglioma cells, luminescence, confirmation (AID 1988); assay type: functional, cell-based
[20] = Luminescence Cell-Based Dose Retest to Confirm Inhibitors of Cancer Stem Cells. [Related pubchem assays (depositor defined):AID2717, AID2721]; assay type: functional; conditions: Homo sapiens
[21] = target: Nucleotide-binding oligomerization domain-containing protein 2 (Homo sapiens, UniProt Q9HC29); test: inhibition of NOD2-driven NF-kB reporter – cell-based, luminescence, uHTS, HEK293 (AID 1566); assay type: functional
HEK293 [22] = test: cells; assay type: functional, cell-based; conditions: Homo sapiens
HEK293 [23] = test: inhibition of NOD1-driven NF-kB reporter – cell-based, luminescence, uHTS, primary screen (AID 1578); assay type: functional; conditions: Homo sapiens
HEK293 [24] = test: cells; assay type: functional, cell-based; conditions: Homo sapiens; remark: listed apart in the source
HEK293 [25] = test: cells; assay type: functional, cell-based; conditions: Homo sapiens; remark: listed apart in the source
HEK293 [26] = test: NOD2 signaling inhibitors in MDP-stimulated cells, cell-based, uHTS, luminescence (AID 2001); assay type: functional; conditions: Homo sapiens
Nonstructural protein 1 = Nonstructural protein 1 (Influenza A virus, UniProt Q194T2); assay type: functional, Influenza A virus (A/California/07/2009(H1N1))
Chain of Nonstructural protein 1 (Q194T2 whole entry): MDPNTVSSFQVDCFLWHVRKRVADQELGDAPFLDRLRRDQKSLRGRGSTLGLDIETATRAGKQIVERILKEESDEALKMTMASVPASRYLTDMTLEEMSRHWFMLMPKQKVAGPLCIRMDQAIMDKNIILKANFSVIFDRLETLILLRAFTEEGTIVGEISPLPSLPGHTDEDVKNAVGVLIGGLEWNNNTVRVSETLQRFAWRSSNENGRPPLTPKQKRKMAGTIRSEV

Chain of Lysine-specific demethylase 4C (Q9H3R0 whole entry): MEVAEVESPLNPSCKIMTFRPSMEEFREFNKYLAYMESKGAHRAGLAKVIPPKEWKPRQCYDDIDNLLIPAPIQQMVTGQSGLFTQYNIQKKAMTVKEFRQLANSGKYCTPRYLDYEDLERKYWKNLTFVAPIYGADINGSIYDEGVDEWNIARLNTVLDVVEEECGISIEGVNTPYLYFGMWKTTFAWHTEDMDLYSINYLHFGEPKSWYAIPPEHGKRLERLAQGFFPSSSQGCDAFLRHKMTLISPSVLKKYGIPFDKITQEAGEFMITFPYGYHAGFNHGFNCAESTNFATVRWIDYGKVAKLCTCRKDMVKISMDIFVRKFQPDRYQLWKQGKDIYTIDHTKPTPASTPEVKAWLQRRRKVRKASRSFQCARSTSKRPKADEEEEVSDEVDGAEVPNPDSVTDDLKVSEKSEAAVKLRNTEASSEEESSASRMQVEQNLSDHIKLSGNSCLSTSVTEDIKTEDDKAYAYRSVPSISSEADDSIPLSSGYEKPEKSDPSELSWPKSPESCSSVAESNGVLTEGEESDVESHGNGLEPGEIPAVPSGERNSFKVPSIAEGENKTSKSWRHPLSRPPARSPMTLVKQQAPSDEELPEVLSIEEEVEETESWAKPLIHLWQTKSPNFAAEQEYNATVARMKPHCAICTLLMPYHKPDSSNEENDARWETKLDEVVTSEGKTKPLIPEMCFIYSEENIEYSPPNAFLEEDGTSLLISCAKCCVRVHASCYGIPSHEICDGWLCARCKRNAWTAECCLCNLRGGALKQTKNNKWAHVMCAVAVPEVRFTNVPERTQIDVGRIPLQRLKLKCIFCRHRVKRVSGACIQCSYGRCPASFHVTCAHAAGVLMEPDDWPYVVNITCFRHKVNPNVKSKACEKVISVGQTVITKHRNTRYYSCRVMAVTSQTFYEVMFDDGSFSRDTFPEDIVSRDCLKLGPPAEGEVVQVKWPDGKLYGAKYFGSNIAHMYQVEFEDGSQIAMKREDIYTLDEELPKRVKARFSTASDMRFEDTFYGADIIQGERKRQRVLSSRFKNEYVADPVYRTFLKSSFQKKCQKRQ
Chain of Nucleotide-binding oligomerization domain-containing protein 2 (Q9HC29 whole entry, the tested form may be a part): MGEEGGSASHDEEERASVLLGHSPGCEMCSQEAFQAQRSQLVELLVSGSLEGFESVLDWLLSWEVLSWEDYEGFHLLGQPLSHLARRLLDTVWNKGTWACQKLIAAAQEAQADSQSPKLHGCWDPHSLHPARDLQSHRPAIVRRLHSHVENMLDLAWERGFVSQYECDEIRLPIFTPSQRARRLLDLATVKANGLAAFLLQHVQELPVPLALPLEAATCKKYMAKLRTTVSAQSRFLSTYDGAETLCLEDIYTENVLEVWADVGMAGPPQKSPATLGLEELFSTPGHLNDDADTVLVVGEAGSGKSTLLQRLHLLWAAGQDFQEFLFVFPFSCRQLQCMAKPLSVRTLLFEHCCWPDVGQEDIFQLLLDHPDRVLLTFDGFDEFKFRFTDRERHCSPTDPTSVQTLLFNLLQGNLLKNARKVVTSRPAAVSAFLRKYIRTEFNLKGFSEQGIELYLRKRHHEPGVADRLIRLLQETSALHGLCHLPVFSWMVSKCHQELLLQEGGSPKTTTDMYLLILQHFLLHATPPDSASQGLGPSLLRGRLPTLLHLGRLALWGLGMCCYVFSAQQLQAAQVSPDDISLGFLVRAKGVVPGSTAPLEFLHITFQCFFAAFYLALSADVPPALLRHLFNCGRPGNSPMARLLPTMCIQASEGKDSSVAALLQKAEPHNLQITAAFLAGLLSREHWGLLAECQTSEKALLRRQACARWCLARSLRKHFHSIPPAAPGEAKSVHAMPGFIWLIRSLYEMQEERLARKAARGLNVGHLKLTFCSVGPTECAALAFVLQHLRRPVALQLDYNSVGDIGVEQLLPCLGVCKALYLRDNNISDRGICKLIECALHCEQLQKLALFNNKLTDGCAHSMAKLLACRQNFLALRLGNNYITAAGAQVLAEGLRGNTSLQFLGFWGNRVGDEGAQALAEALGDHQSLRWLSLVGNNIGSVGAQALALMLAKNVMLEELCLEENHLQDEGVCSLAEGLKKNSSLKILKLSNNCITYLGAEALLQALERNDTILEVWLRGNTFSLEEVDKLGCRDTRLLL
Chain of Delta-type opioid receptor (P41143 whole entry): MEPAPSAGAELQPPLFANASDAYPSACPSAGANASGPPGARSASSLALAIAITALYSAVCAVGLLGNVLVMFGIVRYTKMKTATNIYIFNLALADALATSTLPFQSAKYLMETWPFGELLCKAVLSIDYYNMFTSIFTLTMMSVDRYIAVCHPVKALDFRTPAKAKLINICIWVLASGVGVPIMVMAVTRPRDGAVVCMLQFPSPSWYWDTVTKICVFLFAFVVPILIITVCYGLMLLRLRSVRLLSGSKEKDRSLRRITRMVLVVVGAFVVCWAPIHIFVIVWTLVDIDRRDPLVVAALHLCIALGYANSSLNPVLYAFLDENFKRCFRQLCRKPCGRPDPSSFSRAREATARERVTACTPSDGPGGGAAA
Chain of 5-hydroxytryptamine receptor 5A (P47898 whole entry): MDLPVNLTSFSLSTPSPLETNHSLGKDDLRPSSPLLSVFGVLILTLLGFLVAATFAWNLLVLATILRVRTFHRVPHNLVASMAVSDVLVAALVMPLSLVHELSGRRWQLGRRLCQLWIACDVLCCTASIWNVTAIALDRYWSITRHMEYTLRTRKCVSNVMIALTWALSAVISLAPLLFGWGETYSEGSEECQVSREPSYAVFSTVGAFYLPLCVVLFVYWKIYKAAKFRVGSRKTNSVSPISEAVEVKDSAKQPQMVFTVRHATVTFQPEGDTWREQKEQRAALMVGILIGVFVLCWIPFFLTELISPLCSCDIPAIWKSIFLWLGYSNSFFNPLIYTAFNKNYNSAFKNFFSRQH
Chain of Mu-type opioid receptor (P35372 whole entry): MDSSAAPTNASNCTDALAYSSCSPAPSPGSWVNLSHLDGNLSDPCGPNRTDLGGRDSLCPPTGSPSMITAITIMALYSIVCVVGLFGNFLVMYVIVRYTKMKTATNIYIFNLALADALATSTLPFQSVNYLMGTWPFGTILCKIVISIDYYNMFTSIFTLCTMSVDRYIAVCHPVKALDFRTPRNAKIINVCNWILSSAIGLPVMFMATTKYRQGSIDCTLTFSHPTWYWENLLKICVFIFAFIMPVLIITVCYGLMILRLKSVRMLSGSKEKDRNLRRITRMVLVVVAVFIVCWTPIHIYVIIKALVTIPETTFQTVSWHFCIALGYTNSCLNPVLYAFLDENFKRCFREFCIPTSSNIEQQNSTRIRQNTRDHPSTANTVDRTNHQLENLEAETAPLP
Chain of Tumor necrosis factor (P01375 whole entry): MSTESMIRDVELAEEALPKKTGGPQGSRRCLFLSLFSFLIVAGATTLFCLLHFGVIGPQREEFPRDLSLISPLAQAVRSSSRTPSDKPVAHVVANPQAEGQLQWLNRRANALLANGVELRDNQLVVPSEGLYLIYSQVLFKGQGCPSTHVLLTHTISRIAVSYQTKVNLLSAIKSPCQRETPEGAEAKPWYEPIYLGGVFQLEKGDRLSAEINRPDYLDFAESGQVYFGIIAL
Chain of Cytochrome P450 2D6 (P10635 whole entry): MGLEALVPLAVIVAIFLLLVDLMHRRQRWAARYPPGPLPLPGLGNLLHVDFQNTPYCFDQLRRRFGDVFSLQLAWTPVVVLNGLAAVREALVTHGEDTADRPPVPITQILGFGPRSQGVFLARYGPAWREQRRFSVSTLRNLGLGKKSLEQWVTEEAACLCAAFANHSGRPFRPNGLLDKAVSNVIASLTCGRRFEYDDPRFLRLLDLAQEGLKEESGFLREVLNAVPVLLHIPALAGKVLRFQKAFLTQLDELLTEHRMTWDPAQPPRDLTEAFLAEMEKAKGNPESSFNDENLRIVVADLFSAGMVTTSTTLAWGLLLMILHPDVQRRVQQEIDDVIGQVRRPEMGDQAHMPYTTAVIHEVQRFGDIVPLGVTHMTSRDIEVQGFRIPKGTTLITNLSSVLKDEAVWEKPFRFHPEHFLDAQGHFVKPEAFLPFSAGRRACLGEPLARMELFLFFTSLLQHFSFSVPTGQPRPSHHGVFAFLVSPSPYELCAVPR

CCOc1ccc(NC(=O)CSc2nnc(-c3ccccc3)n2N)cc1
AC50 [1]: 12.1 µM (active)

CC(C)(CO)NC(=O)c1ccc2nc(Cc3cccc(Cl)c3)oc2c1
AC50 (A-375 [2]): > 35 µM (active) | AC50 (A-375 [3]): > 35 µM (active)

CCOC(=O)c1c(C)[nH]c(C(=O)OCC(O)=C(C#N)c2nc3ccccc3[nH]2)c1C
EC50 [4]: > 92.5 µM (inactive) | EC50 [5]: > 92.5 µM (inactive) | EC50 (Mu-type opioid receptor): > 92.5 µM (inactive)

O=C(Nc1ccc2nc3n(c(=O)c2c1)CCCC3)c1cc([N+](=O)[O-])ccc1F
AC50 (A-375 [2]): > 35 µM (active) | AC50 [6]: 0.361 µM (active) | AC50 [7]: 21.8 µM (active) | AC50 (A-375 [3]): > 35 µM (active) | AC50 [8]: 39.2 µM (active) | AC50 [9]: 11.5 µM (active) | CC50 [10]: 15.1 µM (active)

CC(C)(C)n1nnnc1C(c1cccnc1)N(Cc1ccccc1)Cc1ccco1 (centres undefined)
AC50 (HeLa): 75.8 µM (active) | EC50 (HEK293 [11]): > 59.6 µM (inactive) | EC50 (HEK293 [12]): > 59.6 µM (inactive) | AC50 (Cytochrome P450 2D6): 31.6 µM (inconclusive) | AC50 (ORF 73): 0.592 µM (active)

Cc1ccc(-c2nnn3c2nc(Cl)c2ccccc23)cc1
IC50 (Vero [13]): > 25 µM (active) | CC50 (Vero [14]): 18.4 µM (active)

CCCN(C(=O)Cc1ccc(S(=O)(=O)N2CCOCC2)s1)c1c(N)n(Cc2ccccc2)c(=O)[nH]c1=O
AC50 [1]: 39.2 µM (active)

CC1Cc2cc(S(=O)(=O)N3CCN(c4ccc([N+](=O)[O-])cc4)CC3)ccc2N1C(=O)C1CC1 (centres undefined)
IC50 (HEK293 [15]): 15.2 µM (active) | IC50 [16]: 0.26 µM (active) | IC50 (Tumor necrosis factor): 0.236 µM (active)

Cc1cccc(NC(=O)CSCC(=O)Nc2cc(C(F)(F)F)ccc2N2CCOCC2)c1
EC50 (HEK293 [11]): > 59.6 µM (inactive) | EC50 (HEK293 [12]): > 59.6 µM (inactive)

Cc1cccc(N/N=C(\C(N)=O)C2=NC(C)(C)Cc3ccccc32)c1
EC50 [17]: 13.1 µM (active) | EC50 [18]: 3.43 µM (active) | IC50 (Vero [13]): > 25 µM (active) | EC50 [19]: 20.2 µM (active) | CC50 (Vero [14]): > 25 µM (active) | AC50 [20]: 9.41 µM (active)

COc1cc(/C=C2\CCC/C(=C\c3ccc(O)c(OC)c3)C2=O)ccc1O [CYCLOVALONE]
EC50 [21]: 9.95 µM (active) | IC50 (HEK293 [22]): 3.6 µM (active) | EC50 (HEK293 [23]): 4.94 µM (active) | IC50 (HEK293 [24]): > 20 µM (inactive) | IC50 (HEK293 [25]): > 20 µM (inactive) | IC50 (HEK293 [26]): 3.75 µM (active) | IC50 (Nonstructural protein 1): > 100 µM (active)

Source: ChEMBL document CHEMBL1201862, “PubChem BioAssay data set” (2004)
